Results published in PubChem BioAssay (NCI).
Where “and” joins values, the source holds several entries; their conditions need not be identical. Equal entries are not always repeated.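 How tested: cells in 96-well plates exposed to compound for 48 hours at five concentrations. Abbreviation: GI50, concentration required for 50% inhibition of growth. TGI denotes the concentration required for complete inhibition of growth.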

Columns and labels:
Test in all cases: inhibition of tumour cell growth, NCI panel, 48 h
OVCAR-5 ovarian = system: OVCAR-5 ovarian
HOP-62 NSCLC = system: HOP-62 NSCLC
NCI-H522 lung = system: NCI-H522 lung
HT29 colon = system: HT29 colon
UACC-62 melanoma = system: UACC-62 melanoma
SF-268 CNS = system: SF-268 CNS
NCI-H23 lung = system: NCI-H23 lung
OVCAR-4 ovarian = system: OVCAR-4 ovarian
M14 melanoma = system: M14 melanoma
SW-620 colon = system: SW-620 colon

SMILES	GI50 (OVCAR-5 ovarian) [µM]	TGI (OVCAR-5 ovarian)	GI50 (HOP-62 NSCLC) [µM]	TGI (HOP-62 NSCLC)	TGI (NCI-H522 lung)	GI50 (HT29 colon) [µM]	TGI (HT29 colon)	GI50 (UACC-62 melanoma) [µM]	TGI (UACC-62 melanoma)	GI50 (SF-268 CNS) [µM]	TGI (SF-268 CNS)	TGI (NCI-H23 lung)	GI50 (OVCAR-4 ovarian) [µM]	TGI (OVCAR-4 ovarian)	GI50 (M14 melanoma) [µM]	TGI (M14 melanoma)	TGI (SW-620 colon)	GI50 (NCI-H522 lung) [µM]	GI50 (NCI-H23 lung) [µM]	GI50 (SW-620 colon) [µM]
CCCC(=O)Nc1cn(COC)c(C(=O)N2C[C@@H]3C[C@]34C2=CC(=O)c2[nH]cc(C)c24)n1	3.3	50 µM and 9.52 µM	3.91	50 µM and 15.2 µM	13.5 µM and 4 µM	11.2	21.1 µM and 37.7 µM	12.4	16.8 µM and 24.9 µM	2.65	30.5 µM and 8.66 µM	14.7 µM and 6.4 µM	4.66	18.2 µM and 14.3 µM	4.12	50 µM and 16.2 µM	50 µM and 47.7 µM	–	–	–
CCC[CH2][Sn]([CH2]CCC)([O]C(=O)c1ccc(OC)c(OC)c1OC)[O][Sn]([CH2]CCC)([CH2]CCC)[O]C(=O)c1ccc(OC)c(OC)c1OC	1.52	2.85 µM	1.61	2.98 µM	0.0392 µM	0.831	2.31 µM	0.164	0.504 µM	0.187	0.842 µM	0.535 µM	0.618	1.87 µM	0.267	0.583 µM	0.271 µM	< 0.0108	0.142	0.0889
O=C(Nc1ccc(Br)cc1F)c1cc(Cl)ccc1O	3.67	> 100 µM	1.64	5.22 µM	4.34 µM	3.09	31.5 µM	0.292	1.16 µM	0.676	9.96 µM	5.14 µM	0.509	> 100 µM	0.585	3.58 µM	> 39.2 µM	0.361	0.492	1.05
C[C@@H]1C[C@@H]([C@@H](CC2CC(=O)NC(=O)C2)OC(=O)CC(=O)c2ccccc2)C(=O)[C@@H](C)C1	0.662	> 100 µM	0.99	> 100 µM	4.32 µM	0.634	> 100 µM	0.915	> 100 µM	0.908	> 32 µM	> 80.6 µM	1.91	> 100 µM	0.588	> 49.1 µM	> 43.1 µM	0.191	0.545	0.512
COc1ccc2nc3ccccc3c(NCc3ccc(F)cc3)c2c1	2.25	8.21 µM	2.34	10.9 µM	9.38 µM	1.48	5.19 µM	3.48	10.2 µM	2.2	8.71 µM	8.46 µM	2.27	8.23 µM	2.23	8.18 µM	7.03 µM	2.06	1.89	1.63
On1c(-c2ccccc2)c(-c2ccccc2N2CCCC2)c2ccccc21	–	> 100 µM	–	> 100 µM	> 100 µM	–	> 100 µM	–	> 100 µM	–	> 100 µM	> 100 µM	–	> 100 µM	–	> 100 µM	> 100 µM	–	–	–
Cc1cc(N[C@@H]2CCC[C@H](Nc3ccnc4cc(Cl)ccc34)C2)nc(N2CCCCCC2)n1	2.06	6.26 µM	1.37	3.03 µM	4 µM	1.05	2.98 µM	1.81	3.34 µM	1.54	3.39 µM	5.43 µM	1.72	5.04 µM	1.55	3.29 µM	3.28 µM	1.93	2.03	1.52
